Assay results reported in US11759456B2, “Pharmaceutical composition” (KOWA COMPANY, LTD., priority 2017, dated 2023).

Test: Laser Diffraction Measurement of Particle Size of primary particles
Type: physicochemical
Conditions: pemafibrate used in Test Examples; Japanese Pharmacopoeia 17th Edition laser diffraction

CC[C@@H](Oc1cccc(CN(CCCOc2ccc(OC)cc2)c2nc3ccccc3o2)c1)C(=O)O [pemafibrate, (2R)-2-[3-([1,3-Benzoxazol-2-yl[3-(4-methoxyphenoxy)propyl]amino]methyl)phenoxy]butanoic acid]
d50 value (average particle diameter of primary particles): ≤ 100 μm
d90 value (average particle diameter of primary particles): ≤ 200 μm
